What was measured:
K562 [1] = assay: Growth inhibition of human K562 cells assessed as cell growth at 0.1 uM incubated for 48 hrs by sulforhodamine B assay relative to control; format: functional; conditions: K562, 48 h, read-out: Activity
SK-OV-3 [2] = assay: Growth inhibition of human SKOV3 cells incubated for 48 hrs by sulforhodamine B assay; format: functional, cell-based; conditions: SK-OV-3, 48 h
UACC-257 = assay: Growth inhibition of human UACC257 cells incubated for 48 hrs by sulforhodamine B assay; format: functional, cell-based; conditions: UACC-257, 48 h
IGROV-1 = assay: Growth inhibition of human IGROV1 cells assessed as cell growth at 0.1 uM incubated for 48 hrs by sulforhodamine B assay relative to control; format: functional; conditions: IGROV-1, 48 h, read-out: Activity
MDA-MB-231 = assay: Growth inhibition of human MDA-MB-231 cells assessed as cell growth at 1 uM incubated for 48 hrs by sulforhodamine B assay relative to control; format: functional; conditions: MDA-MB-231, 48 h, read-out: Activity
MOLT-4 = assay: Growth inhibition of human MOLT4 cells incubated for 48 hrs by sulforhodamine B assay; format: functional, cell-based; conditions: MOLT-4, 48 h
A549 [3] = assay: Growth inhibition of human A549/ATCC cells assessed as cell growth at 0.1 uM incubated for 48 hrs by sulforhodamine B assay relative to control; format: functional; conditions: A549, 48 h, read-out: Activity
SK-MEL-5 [4] = assay: Growth inhibition of human SK-MEL-5 cells assessed as cell growth at 1 uM incubated for 48 hrs by sulforhodamine B assay relative to control; format: functional; conditions: SK-MEL-5, 48 h, read-out: Activity
SF-295 = assay: Growth inhibition of human SF295 cells assessed as cell growth at 100 uM incubated for 48 hrs by sulforhodamine B assay relative to control; format: functional; conditions: SF-295, 48 h, read-out: Activity
SK-MEL-5 [5] = assay: Growth inhibition of human SK-MEL-5 cells assessed as cell growth at 0.01 uM incubated for 48 hrs by sulforhodamine B assay relative to control; format: functional; conditions: SK-MEL-5, 48 h, read-out: Activity
OVCAR-3 = assay: Growth inhibition of human OVCAR3 cells assessed as cell growth at 0.1 uM incubated for 48 hrs by sulforhodamine B assay relative to control; format: functional; conditions: OVCAR-3, 48 h, read-out: Activity
DU-145 [6] = assay: Growth inhibition of human DU145 cells assessed as cell growth at 0.01 uM incubated for 48 hrs by sulforhodamine B assay relative to control; format: functional; conditions: DU-145, 48 h, read-out: Activity
SF-268 = assay: Growth inhibition of human SF268 cells assessed as cell growth at 100 uM incubated for 48 hrs by sulforhodamine B assay relative to control; format: functional; conditions: SF-268, 48 h, read-out: Activity
A498 = assay: Growth inhibition of human A498 cells assessed as cell growth at 0.01 uM incubated for 48 hrs by sulforhodamine B assay relative to control; format: functional; conditions: A498, 48 h, read-out: Activity
RPMI-8226 = assay: Growth inhibition of human RPMI8226 cells assessed as cell growth at 100 uM incubated for 48 hrs by sulforhodamine B assay relative to control; format: functional; conditions: RPMI-8226, 48 h, read-out: Activity
DU-145 [7] = assay: Growth inhibition of human DU145 cells incubated for 48 hrs by sulforhodamine B assay; format: functional, cell-based; conditions: DU-145, 48 h
MDA-MB-435 = assay: Growth inhibition of human MDA-MB-435 cells assessed as cell growth at 0.01 uM incubated for 48 hrs by sulforhodamine B assay relative to control; format: functional; conditions: MDA-MB-435, 48 h, read-out: Activity
K562 [8] = assay: Growth inhibition of human K562 cells assessed as cell growth at 100 uM incubated for 48 hrs by sulforhodamine B assay relative to control; format: functional; conditions: K562, 48 h, read-out: Activity
TK-10 = assay: Growth inhibition of human TK10 cells assessed as cell growth at 10 uM incubated for 48 hrs by sulforhodamine B assay relative to control; format: functional; conditions: TK-10, 48 h, read-out: Activity
SNB-75 [9] = assay: Growth inhibition of human SNB75 cells assessed as cell growth at 0.01 uM incubated for 48 hrs by sulforhodamine B assay relative to control; format: functional; conditions: SNB-75, 48 h, read-out: Activity
HCT-116 = assay: Growth inhibition of human HCT116 cells assessed as cell growth at 0.01 uM incubated for 48 hrs by sulforhodamine B assay relative to control; format: functional; conditions: HCT-116, 48 h, read-out: Activity
SK-MEL-28 = assay: Growth inhibition of human SK-MEL-28 cells assessed as cell growth at 0.1 uM incubated for 48 hrs by sulforhodamine B assay relative to control; format: functional; conditions: SK-MEL-28, 48 h, read-out: Activity
A549 [10] = assay: Growth inhibition of human A549/ATCC cells incubated for 48 hrs by sulforhodamine B assay; format: functional, cell-based; conditions: A549, 48 h
COLO 205 = assay: Growth inhibition of human COLO205 cells assessed as cell growth at 100 uM incubated for 48 hrs by sulforhodamine B assay relative to control; format: functional; conditions: COLO 205, 48 h, read-out: Activity
SK-OV-3 [11] = assay: Growth inhibition of human SKOV3 cells assessed as cell growth at 0.01 uM incubated for 48 hrs by sulforhodamine B assay relative to control; format: functional; conditions: SK-OV-3, 48 h, read-out: Activity
SNB-75 [12] = assay: Growth inhibition of human SNB75 cells incubated for 48 hrs by sulforhodamine B assay; format: functional, cell-based; conditions: SNB-75, 48 h
OVCAR-8 = assay: Growth inhibition of human OVCAR8 cells assessed as cell growth at 1 uM incubated for 48 hrs by sulforhodamine B assay relative to control; format: functional; conditions: OVCAR-8, 48 h, read-out: Activity
SK-OV-3 [13] = assay: Growth inhibition of human SKOV3 cells assessed as cell growth at 1 uM incubated for 48 hrs by sulforhodamine B assay relative to control; format: functional; conditions: SK-OV-3, 48 h, read-out: Activity
NCI-H226 = assay: Growth inhibition of human NCI-H226 cells assessed as cell growth at 1 uM incubated for 48 hrs by sulforhodamine B assay relative to control; format: functional; conditions: NCI-H226, 48 h, read-out: Activity
[14] = read-out: LC50 (the source's name)
[15] = read-out: pLC50 (the source's name) (converted)

COc1cc(Cl)cc(-c2nn(-c3cccc(NC(=O)Nc4cc(C(F)(F)F)cc(C(F)(F)F)c4)c3)cc2-c2ccncc2)c1
growth at 0.1 µM (K562 [1]): 91% | IC50 (SK-OV-3 [2]): 770 nM | GI50 (SK-OV-3 [2]; read-out: GI50): 770 nM | CC50 (SK-OV-3 [2]; [14]): 41.2 nM | TGI (SK-OV-3 [2]; read-out: TGI): 5750 nM | GI50 (SK-OV-3 [2]; read-out: pGI50 (converted)): 776 nM | CC50 (SK-OV-3 [2]; [15]): 41700 nM | TGI (SK-OV-3 [2]; read-out: pTGI (converted)): 5750 nM | IC50 (UACC-257): 410 nM | GI50 (UACC-257; read-out: GI50): 412 nM | CC50 (UACC-257; [14]): 70 nM | TGI (UACC-257; read-out: TGI): 1840 nM | GI50 (UACC-257; read-out: pGI50 (converted)): 407 nM | CC50 (UACC-257; [15]): 7080 nM | TGI (UACC-257; read-out: pTGI (converted)): 1860 nM | growth at 0.1 µM (IGROV-1): 104% | growth at 1 µM (MDA-MB-231): 29% | IC50 (MOLT-4): 310 nM | GI50 (MOLT-4; read-out: GI50): 306 nM | CC50 (MOLT-4; [14]): > 100000 nM | TGI (MOLT-4; read-out: TGI): 1640 nM | GI50 (MOLT-4; read-out: pGI50 (converted)): 302 nM | CC50 (MOLT-4; [15]): > 100000 nM | TGI (MOLT-4; read-out: pTGI (converted)): 1620 nM | growth at 0.1 µM (A549 [3]): 95% | growth at 1 µM (SK-MEL-5 [4]): 50% | growth at 100 µM (SF-295): -63% | growth at 0.01 µM (SK-MEL-5 [5]): 100% | growth at 0.1 µM (OVCAR-3): 95% | growth at 0.01 µM (DU-145 [6]): 104% | growth at 100 µM (SF-268): -88% | growth at 0.01 µM (A498): 64% | growth at 100 µM (RPMI-8226): -8% | IC50 (DU-145 [7]): 470 nM | GI50 (DU-145 [7]; read-out: GI50): 459 nM | TGI (DU-145 [7]; read-out: TGI): 10600 nM | GI50 (DU-145 [7]; read-out: pGI50 (converted)): 468 nM | CC50 (DU-145 [7]; [15]): 38900 nM | TGI (DU-145 [7]; read-out: pTGI (converted)): 10700 nM | growth at 0.01 µM (MDA-MB-435): 97% | growth at 100 µM (K562 [8]): -42% | growth at 10 µM (TK-10): 30.3% | growth at 0.01 µM (SNB-75 [9]): 71% | growth at 0.01 µM (HCT-116): 102% | growth at 0.1 µM (SK-MEL-28): 102% | IC50 (A549 [10]): 370 nM | GI50 (A549 [10]; read-out: GI50): 372 nM | CC50 (A549 [10]; [14]): 3480 nM | TGI (A549 [10]; read-out: TGI): 4680 nM | GI50 (A549 [10]; read-out: pGI50 (converted)): 372 nM | CC50 (A549 [10]; [15]): 34700 nM | TGI (A549 [10]; read-out: pTGI (converted)): 4680 nM | growth at 100 µM (COLO 205): -68% | growth at 0.01 µM (SK-OV-3 [11]): 100% | IC50 (SNB-75 [12]): 850 nM | GI50 (SNB-75 [12]; read-out: GI50): 848 nM | TGI (SNB-75 [12]; read-out: TGI): 5830 nM | GI50 (SNB-75 [12]; read-out: pGI50 (converted)): 851 nM | CC50 (SNB-75 [12]; [15]): 70800 nM | TGI (SNB-75 [12]; read-out: pTGI (converted)): 5890 nM | growth at 1 µM (OVCAR-8): 12% | growth at 1 µM (SK-OV-3 [13]): 43% | growth at 1 µM (NCI-H226): 41%

From ChEMBL document CHEMBL4308841, “Synthesis, in vitro antiproliferative activity, and kinase inhibitory effects of pyrazole-containing diarylureas and diarylamides” (Eur J Med Chem, 2018)
